For test [1], the system named is LECs from adult human skin (HMLEC-dLyAd). Put plainly: Lymphatic endothelial cell (LEC) migration scratch assay with HFD-lymph. The conditions noted are these: 2% HFD-lymph; celecoxib 20 μM, MAZ51 5 μM. The test is classed as cell-based. As for the experimental part: LECs from adult human skin (HMLEC-dLyAd) were obtained from Lonza (Australia) at the 3rd passage. Cells were thawed and expanded in a T-75 flask at a minimum density of 500,000 cells per flask. Cells were grown in EGM-2MV BulletKit™ medium (CC-3162, Lonza, Australia), which consisted of EBM-2 basal medium supplemented with an EGM-2 SingleQuots™ kit (Lonza, Australia). Flasks were incubated at 37° C. and 5% CO2, and media was changed 24 h after seeding and then every 48 h. Cells were grown to 70-80% confluence and split every 4-5 days. For all experiments, cells were seeded onto plates or coverslips pre-coated with rat tail collagen Type I (50 μg/ml) for 1 h at 37° C. Cells were allowed to grow to 100% confluence (which typically occurred 1.5-2 days after seeding in a cell culture plate) prior to the start of experiments.
Once the LECs reached confluence, the impact of lymph fluid on LEC migration was assessed using a standard scratch assay. […]
Images taken at several time points after wounding (0, 12 and 24 hours) were analyzed using the Fiji distribution of ImageJ to determine the rate of LEC migration over the area of the scratched wound. To enable quantification of the area of the scratch wound, the brightness and contrast of the images was first adjusted to improve the visibility. An outline of the wound was manually drawn and the area of the wound was quantified at each time point. […]

A further test has as its target T1, VEGF receptor (VEGFR)-3 (Homo sapiens, UniProt P35916).
T1 construct: host or cells: endothelial cell lines, including cultured lymphatic endothelial cell lines
The conditions noted are these: endothelial cell lines, including cultured lymphatic endothelial cell lines; cited from earlier work.

T1 sequence (P35916 25-1363): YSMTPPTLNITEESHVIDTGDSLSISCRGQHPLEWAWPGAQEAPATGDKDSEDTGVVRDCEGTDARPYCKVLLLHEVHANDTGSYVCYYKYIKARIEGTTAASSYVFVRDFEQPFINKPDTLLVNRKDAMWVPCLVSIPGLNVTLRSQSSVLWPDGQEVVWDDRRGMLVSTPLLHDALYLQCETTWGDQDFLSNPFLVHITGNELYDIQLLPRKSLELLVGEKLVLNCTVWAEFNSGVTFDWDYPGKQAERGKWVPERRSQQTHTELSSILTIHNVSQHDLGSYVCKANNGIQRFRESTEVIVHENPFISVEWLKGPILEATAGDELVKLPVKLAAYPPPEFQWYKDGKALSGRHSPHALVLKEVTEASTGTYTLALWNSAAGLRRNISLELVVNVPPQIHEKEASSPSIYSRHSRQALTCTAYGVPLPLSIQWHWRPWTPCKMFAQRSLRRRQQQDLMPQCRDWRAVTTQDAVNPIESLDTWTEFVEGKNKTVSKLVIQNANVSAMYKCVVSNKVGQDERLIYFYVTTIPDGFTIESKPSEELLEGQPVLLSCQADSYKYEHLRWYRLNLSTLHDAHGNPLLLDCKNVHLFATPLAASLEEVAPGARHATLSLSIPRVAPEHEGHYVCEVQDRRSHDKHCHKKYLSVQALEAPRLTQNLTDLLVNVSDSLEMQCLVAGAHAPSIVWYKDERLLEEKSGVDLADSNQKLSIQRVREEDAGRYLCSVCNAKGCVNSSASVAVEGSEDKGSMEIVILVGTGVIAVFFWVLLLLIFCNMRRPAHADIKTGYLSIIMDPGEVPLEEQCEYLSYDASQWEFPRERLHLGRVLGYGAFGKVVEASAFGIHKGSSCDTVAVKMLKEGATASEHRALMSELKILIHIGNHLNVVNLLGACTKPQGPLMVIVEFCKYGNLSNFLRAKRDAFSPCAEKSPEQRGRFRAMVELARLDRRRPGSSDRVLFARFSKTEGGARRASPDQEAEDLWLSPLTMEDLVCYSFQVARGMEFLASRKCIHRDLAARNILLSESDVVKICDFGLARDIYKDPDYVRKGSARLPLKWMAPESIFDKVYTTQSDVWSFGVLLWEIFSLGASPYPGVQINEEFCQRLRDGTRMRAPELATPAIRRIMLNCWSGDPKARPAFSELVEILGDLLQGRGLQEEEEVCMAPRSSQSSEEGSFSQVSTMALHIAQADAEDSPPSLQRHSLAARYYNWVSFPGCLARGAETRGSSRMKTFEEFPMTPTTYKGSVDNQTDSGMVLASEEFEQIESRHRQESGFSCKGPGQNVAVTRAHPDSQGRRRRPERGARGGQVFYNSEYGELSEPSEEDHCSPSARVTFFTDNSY

Turning to `CN(C)c1ccc(/C=C2/C(=O)Nc3ccccc32)c2ccccc12` [MAZ51], in test [1], the “LEC migration induced by HFD-lymph” value is listed as “inhibited”. Moreover, the “VEGF-C-dependent and VEGF-C-independent VEGFR-3 phosphorylation” value at VEGF receptor (VEGFR)-3 is “potently inhibit”.

Source of the values: patent US12611415B2, “Methods and compounds for treatment of metabolic disease” (Monash University, priority 2019, dated 2026).
